From patent US9790233B2, “Compositions and methods of modulating 15-PGDH activity” (CASE WESTERN RESERVE UNIVERSITY, priority 2012, dated 2017)
Read-outs that look alike come from different tables or passages of the source.

How the values were obtained:
[1] = system: wild-type mouse bone marrow; assay: Hematopoietic colonies from bone marrow treated ex vivo; format: cell-based; details: 1 uM, ex vivo on ice 2 hours
From the text: Treated marrow is again then plated into methylcellulose for counting of hematopoietic colonies.

[2] = biological target: T1, 15-PGDH protein (Homo sapiens (Human), UniProt P15428); assay: Inhibition of enzymatic activity of recombinant 15-PGDH in vitro (tritium transfer from PGE2 or NADH fluorescence); format: biochemical
[3] = system: 15-PGDH luciferase fusion construct in V9m reporter cell line; assay: 15-PGDH-luciferase fusion gene reporter induction, V9m cells; format: cell-based
[4] = system: 15-PGDH luciferase fusion construct in LS174T reporter cell line; assay: 15-PGDH-luciferase fusion gene reporter induction, LS174T cells; format: cell-based; details: Homo sapiens
[5] = system: 15-PGDH luciferase fusion construct in Vaco503 reporter cell line; assay: 15-PGDH-luciferase fusion gene reporter induction, V503 cells; format: cell-based
[6] = system: 15-PGDH-luciferase fusion reporter in V9m, LS174T and V503 cells; assay: 15-PGDH-luciferase fusion gene reporter induction, stated for the three cell line backgrounds together; format: cell-based; details: for luciferase activity of cells expressing 15-PGDH luciferase fusion construct: V9m, LS174T, V503; for induction of 15-PGDH-luciferase reporter in cell lines (SW054384 analogues): […] and […]
[7] = biological target: T1, 15-PGDH protein; assay: Shift of melting temperature of recombinant 15-PGDH (SYPRO Orange); format: binding; details: FIG. 14
[8] = system: A549 cells; assay: PGE2 levels in the medium of IL1-beta stimulated A549 cells; format: cell-based; details: for Decrease PGE-2 (IL-1beta-A549, %): media of IL-1beta stimulated A549 cells;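 as to all read-outs here: PGE2 in the collected culture medium quantified by enzyme immunoassay (ELISA), with data drawn from three independent experiments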
[9] = Metabolic stability with murine liver S9; format: in vitro ADME; details: for half-life: mouse, liver S9 fraction, Murine S9 fraction, Phase I cofactors, 0-240 minutes
Description: SW054384 (2 mM in DMSO) was incubated with Murine S9 (Lot KWB) fraction and Phase I (NADPH Regenerating System) cofactors for 0-240 minutes. Reactions were quenched with a 1 mL (1:1) of MeOH/(+)IS/0.2% Formic Acid, vortexed for 15 seconds, incubated at RT for 10 minutes and spun for 5 minutes at 2400 rpms. […] Supernatant (800 μL) was transferred to an HPLC vial (w/out insert) and analyzed by HPLC/MS. A: dH2O+0.1% FA B: MeOH+0.1% FA
SW125991 (2 mM in DMSO) was incubated with Murine S9 (Lot KWB) fraction and Phase I (NADPH Regenerating System) cofactors for 0-240 minutes. Reactions were quenched with 1 mL (1:1) of methanol containing 0.2% formic acid and 100 ng/ml IS (IS final conc.=50 ng/ml). Samples were vortexed for 15 seconds, incubated at RT for 10 minutes and spun for 5 minutes at 2400 rpm. […] Supernatant (800 μL) was transferred to an HPLC vial (w/out insert). Analyzed by Qtrap 3200 mass spectrometer.

[10] = biological target: T1, 15-PGDH protein; assay: 15-PGDH protein levels in treated cells (western blot, immuno-fluorescence); format: cell-based; details: […] compound for 48 hours; colon cell lines
[11] = system: 15-PGDH mRNA; assay: 15-PGDH mRNA levels by real-time PCR; format: cell-based; details: treated colon cancer cell lines
[12] = system: A549 cells; assay: Cellular toxicity on A549 cells (CellTiter-Glo); format: cell-based; parameters: Decrease Cell viability in A549 cell (%): concentration or dose not given beside the values; details: for Decrease Cell viability in A549 cell (%): A549 cells
[13] = read-out: V9M-SC3 Reporter activity ([…]) (%), V9m reporter cells, […] compound, % induction of luciferase activity over basal level, read-out: V9M-SC3 Reporter activity (2.5 μM) (%)
[14] = read-out: V9M-SC3 Reporter activity ([…]), %, V9m reporter cells, […] compound, % induction of luciferase activity over basal level, read-out: V9M-SC3 Reporter activity (7.5 μM), %
[15] = read-out: Ls174T-SC1 reporter activity, % ([…]), LS174T reporter cells, […] compound, % induction of luciferase activity over basal level, read-out: Ls174T-SC1 reporter activity, % (2.5 μM)
[16] = read-out: Ls174T-SC1 reporter activity, % ([…]), LS174T reporter cells, […] compound, % induction of luciferase activity over basal level, read-out: Ls174T-SC1 reporter activity, % (7.5 μM)
[17] = read-out: V503-3H9-7 reporter activity, % ([…]), V503 reporter cells, […] compound, % induction of luciferase activity over basal level, read-out: V503-3H9-7 reporter activity, % (2.5 μM)
[18] = read-out: V503-3H9-7 reporter activity, % ([…]), V503 reporter cells, […] compound, % induction of luciferase activity over basal level, read-out: V503-3H9-7 reporter activity, % (7.5 μM)

T1 sequence (P15428 whole entry, the tested form may be a part): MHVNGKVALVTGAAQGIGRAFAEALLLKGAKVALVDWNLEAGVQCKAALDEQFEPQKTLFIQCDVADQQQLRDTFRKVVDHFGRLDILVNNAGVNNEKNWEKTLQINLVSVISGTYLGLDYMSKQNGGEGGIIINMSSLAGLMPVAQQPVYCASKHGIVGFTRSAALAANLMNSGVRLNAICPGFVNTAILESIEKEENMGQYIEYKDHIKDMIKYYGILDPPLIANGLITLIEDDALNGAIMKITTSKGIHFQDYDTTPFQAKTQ

Structure (SMILES) | activation at […] [3, 13] | activation at […] [3, 14] | activation at […] [4, 15] | activation at […] [4, 16] | activation at […] [5, 17] | activation at […] [5, 18] | lowering of PGE2 levels in media [8] | Decrease PGE-2 (IL-1beta-A549, %) [8] | Decrease Cell viability in A549 cell (%) [12] | induction of 15-PGDH-luciferase reporter in cell lines (SW054384 analogues) [6] | other results
CCCCC[C@H](O)/C=C/[C@H]1[C@H](O)CC(=O)[C@@H]1C/C=C\CCCC(=O)O [PGE2, prostaglandin E2] | – | – | – | – | – | – | – | – | – | – | increase in bone marrow derived colonies relative to SW033291 [1]: lesser increase
COc1ccc(OC)c(N(CC(=O)Nc2cccnc2)S(=O)(=O)c2ccccc2)c1 [SW054384] | 116% | 148% | 130% | 156% | 149% | 157% | show activity in lowering PGE2 | 41.96% | – | – | IC50 higher than that of SW033291 [2]: 10,000 fold; IC50 ([2]; 15-PGDH-GST fusion protein, FIG. 11, read-out: IC50): 5 to 50 µM; IC50 ([2]; fluorescent based assay, FIG. 12, read-out: IC50): 11 µM; IC50 ([2]; tritium assay, FIG. 12, read-out: IC50): 8.4 µM; concentration of maximum reporter activity ([6]; FIG. 1): 6.25 µM; luciferase activity of cells expressing 15-PGDH luciferase fusion construct ([6]; FIG. 1): increase luciferase activity; direct binding to recombinant 15-PGDH (melting temperature shift) [7]: cannot be demonstrated to bind 15-PGDH; PGE2 levels in medium ([8]; compound added 24 hours before IL1-beta, maintained 26 hours with IL1-beta): lower level of PGE2 produced; half-life [9]: 0.362 h; levels of 15-PGDH protein (western blot) [10]: increase levels of 15-PGDH protein; 15-PGDH mRNA levels (real-time PCR) [11]: do not in general alter 15-PGDH mRNA levels
COc1ccc(OC)c(N(CC(=O)N2CCOCC2)S(=O)(=O)c2ccccc2)c1 [SW125991] | 77.4% | 74.6% | 67.3% | 83.3% | 161% | 149% | show activity in lowering PGE2 | 31.33% | −2.13% | – | toxicity by CellTiter-Glo ([12]; 24 hours): no toxicity; metabolic stability [9]: marked improvement in metabolic stability; half-life [9]: 3.4 h
O=C(c1ccc2nc(-c3ccccc3)c(-c3ccccc3)nc2c1)N1CCCCC1 [SW145753] | – | – | – | – | – | – | – | – | – | – | luciferase activity of cells expressing 15-PGDH luciferase fusion construct ([6]; FIG. 1): increase luciferase activity; PGE2 levels in medium ([8]; IL1-beta 23 hours, compound added for the last 5 hours): clear inhibition of 15-PGDH activity; 15-PGDH mRNA levels (real-time PCR) [11]: do not in general alter 15-PGDH mRNA levels
COc1ccc(S(=O)(=O)N(CC(=O)Nc2cccnc2)c2cc(OC)ccc2OC)cc1 [SW202940] | 147% | 181% | 148% | 211% | 181% | 183% | – | 80.46% | 45.18% | active in inducing 15-PGDH-luciferase reporter activity | IC50 ([2]; recombinant 15-PGDH in vitro, read-out: Enzyme inhibition (IC50)): ~5 µM
COc1ccc(OC)c(N(CC(=O)Nc2csnc2C)S(=O)(=O)c2ccccc2)c1 [SW203703] | 108% | 106% | 85.8% | 80.2% | 143% | 78% | show activity in lowering PGE2 | 31.90% | −1.97% | active in inducing the 15-PGDH-luciferase reporter | –
COc1ccc(OC)c(N(CC(=O)Nc2cc(C)no2)S(=O)(=O)c2ccccc2)c1 [SW203704] | 8.71% | 8.04% | 8.64% | 12.5% | 52.8% | 37.8% | – | 22.33% | −2.70% | active in inducing the 15-PGDH-luciferase reporter | –
CCCC[S+]([O-])c1sc2nc(-c3nccs3)ccc2c1N (stereo not drawn) [SW206992, 2-(butylsulfinyl)-6-(thiazol-2-yl)thieno[2,3-b]pyridin-3-amine] | – | – | – | – | – | – | – | – | – | – | exposure needed to induce maximal reporter induction ([6]; 24 hours, three cell line backgrounds): > 1000 nM; Concentration for Full Cell Line Reporter Induction ([6]; maximal induction of reporter, Table 3): >1 µM; compound concentration at maximal effect on PGE2 ([8]; IL-1β 16 h, compound 8 h): 2.5 µM; effect on CellTitre-Glo levels ([12]; 24 hours, concentrations of up to 10 uM): No effect on CellTitre-Glo levels; Toxicity ([12]; concentration needed to decrease cell numbers in a cell culture assay, Table 3): >7.5 µM
C[S+]([O-])c1sc2nc(-c3cccs3)cc(-c3ccccc3)c2c1N (stereo not drawn) [SW208079, 2-(methylsulfinyl)-4-phenyl-6-(thiophen-2-yl)thieno[2,3-b]pyridin-3-amine] | – | – | – | – | – | – | – | – | – | – | IC50 higher compared to SW033291 ([2]; effect of carbon side chain length): over 60 fold; activation at […] ([3]; read-out: V9M reporter activity ([…]), […], % increased luciferase activity over basal level, 100 = doubling, read-out: V9M reporter activity (2.5 uM)): 36%; activation at […] ([3]; read-out: V9M reporter activity ([…]), […], % increased luciferase activity over basal level, 100 = doubling, read-out: V9M reporter activity (7.5 uM)): 32.8%; activation at […] ([4]; read-out: LS174T reporter activity ([…]), […], % increased luciferase activity over basal level, read-out: LS174T reporter activity (2.5 uM)): 53.4%; activation at […] ([4]; read-out: LS174T reporter activity ([…]), […], % increased luciferase activity over basal level, read-out: LS174T reporter activity (7.5 uM)): 43.8%; activation at […] ([5]; read-out: V503 reporter activity ([…]), […], % increased luciferase activity over basal level, read-out: V503 reporter activity (2.5 uM)): 85.3%; activation at […] ([5]; read-out: V503 reporter activity ([…]), […], % increased luciferase activity over basal level, read-out: V503 reporter activity (7.5 uM)): 61.8%; reporter induction in reporter cell lines [6]: marked loss of activity in inducing the cell line reporters
CCCCC(C)(C)[C@H](O)/C=C/[C@H]1[C@H](O)CC(=O)[C@@H]1C/C=C\CCCC(=O)O [dmPGE2, 16,16-dimethyl PGE2] | – | – | – | – | – | – | – | – | – | – | increase in bone marrow derived colonies relative to SW033291 [1]: slightly greater increase
